For one assay, the system named is A549. The experiment in a line: Cytotoxicity against human A549 cells after 96 hrs by SRB assay. It is filed as functional, cell-based. The conditions noted are these: A549, 96 h.
The next assay relates to MCF7. The assay can be described thus: Cytotoxicity against human MCF7 cells after 96 hrs by SRB assay. It counts as functional, cell-based. The settings on record: MCF7, 96 h. In general terms: Sulforhodamine B stains cellular protein and so reports cell mass.
Another assay deals with A2780. The assay can be described thus: Cytotoxicity against human A2780 cells after 96 hrs by SRB assay. It is filed as functional, cell-based. The conditions noted are these: A2780, 96 h.
The next assay deals with NIH3T3. The experiment in a line: Cytotoxicity against mouse NIH/3T3 cells after 96 hrs by SRB assay. The conditions noted are these: NIH3T3, 96 h. It is filed as cell-based.
A further assay has as its system HT-29. The assay can be described thus: cells. The conditions noted are these: Homo sapiens, HT-29, 96 h.
For another assay, the system named is 518A2. The experiment in a line: Cytotoxicity against human 518A2 cells after 96 hrs by SRB assay. It counts as functional, cell-based. The settings on record: 518A2, 96 h.

Description for HT-29: Cytotoxicity against human HT-29 cells after 96 hrs by SRB assay

Regarding `COC(=O)[C@]12CC[C@@H](C(C)=O)[C@@H]1[C@H]1CC[C@@H]3[C@@]4(C)CC[C@H](O)C(C)(C)[C@@H]4CC[C@@]3(C)[C@]1(C)CC2`, the EC50 in the assay with A549, with MCF7, in the assay on A2780, with NIH3T3 and with HT-29 was more than 30 µM each time.
On to `CC(=O)O[C@H]1CC[C@]2(C)[C@H]3CC[C@@H]4[C@H]5[C@H](C(C)=O)CC[C@]5(C(=O)OCc5ccccc5)CC[C@@]4(C)[C@]3(C)CC[C@H]2C1(C)C`, for which the EC50 in the assay on MCF7, in the assay on A2780, with NIH3T3 and in the assay on HT-29 was more than 30 µM throughout.
As for `COC(=O)[C@]12CC[C@@H](NC(C)=O)[C@@H]1[C@H]1CC[C@@H]3[C@@]4(C)CC[C@H](OC(C)=O)C(C)(C)[C@@H]4CC[C@@]3(C)[C@]1(C)CC2`, the EC50 is 27.7 µM in the assay on A549; 10 µM with MCF7; 22.1 µM with A2780; 24.1 µM with NIH3T3; more than 30 µM with HT-29.
Turning to `CNC(=O)[C@@H]1CC[C@]2(C(=O)OC)CC[C@]3(C)[C@H](CC[C@@H]4[C@@]5(C)CC[C@H](O)C(C)(C)[C@@H]5CC[C@]43C)[C@@H]12`, the EC50 in the assay on A549, in the assay on MCF7, in the assay on A2780, in the assay with NIH3T3 and in the assay with HT-29 was more than 30 µM in each case.
In the case of `CN[C@@H]1C[C@H]2O[C@@](C)([C@@H]1OC)n1c3ccccc3c3c4c(c5c6ccccc6n2c5c31)C(=O)NC4` [STAUROSPORINE], the EC50 with A549 is 0.04 µM; in the assay with A2780 it was 0.12 µM; in the assay on NIH3T3 it was 0.008 µM; in the assay on HT-29, 0.15 µM.
Turning to `CC(=O)O[C@H]1CC[C@]2(C)[C@H]3CC[C@@H]4[C@H]5[C@H](C(C)=O)CC[C@]5(N=C=O)CC[C@@]4(C)[C@]3(C)CC[C@H]2C1(C)C`, the concentration for a half-maximal effect (EC50) in the assay with MCF7, with A2780, in the assay with NIH3T3 and in the assay on HT-29 was more than 30 µM in each case.
For `CNC(=O)[C@@H]1CC[C@]2(C(=O)OC)CC[C@]3(C)[C@H](CC[C@@H]4[C@@]5(C)CC[C@H](OC(C)=O)C(C)(C)[C@@H]5CC[C@]43C)[C@@H]12`, the EC50 in the assay on A549 was more than 30 µM; in the assay on MCF7, 13.9 µM; with A2780, 11.2 µM; in the assay with NIH3T3, more than 30 µM; in the assay on HT-29, more than 30 µM.
Take `CCC(=O)O/N=C(\C)[C@@H]1CC[C@]2(C(=O)OC)CC[C@]3(C)[C@H](CC[C@@H]4[C@@]5(C)CC[C@H](OC(C)=O)C(C)(C)[C@@H]5CC[C@]43C)[C@@H]12`: the EC50 in the assay with A549 is 13.2 µM; in the assay on MCF7 it was 13.4 µM; in the assay on NIH3T3 it was 15.3 µM; with 518A2, 17.9 µM; in the assay on HT-29, 28.7 µM.
`COC(=O)[C@]12CC[C@@H](C(C)=O)[C@@H]1[C@H]1CC[C@@H]3[C@@]4(C)CC[C@H](OC(C)=O)C(C)(C)[C@@H]4CC[C@@]3(C)[C@]1(C)CC2`: the EC50 with MCF7, in the assay on A2780, with NIH3T3 and in the assay with HT-29 was more than 30 µM each time.
With `COC(=O)[C@]12CC[C@@H](NC(C)=O)[C@@H]1[C@H]1CC[C@@H]3[C@@]4(C)CC[C@H](O)C(C)(C)[C@@H]4CC[C@@]3(C)[C@]1(C)CC2`, the EC50 in the assay with A549, in the assay with MCF7, in the assay with A2780, in the assay on NIH3T3 and with HT-29 was more than 30 µM throughout.
As for `CC(=O)[C@@H]1CC[C@]2(C(=O)OCc3ccccc3)CC[C@]3(C)[C@H](CC[C@@H]4[C@@]5(C)CC[C@H](O)C(C)(C)[C@@H]5CC[C@]43C)[C@@H]12`, the EC50 was found to be 15.9 µM in the assay with A549; 9 µM with MCF7; 15.8 µM with A2780; 18.1 µM with NIH3T3; 10.1 µM in the assay on HT-29.

For orientation: EC50 means the concentration at which the effect is half-maximal.
